The test system of the test is IL-1β production in PMA-differentiated THP-1 cells. Kind of test: IL-1β production in PMA-differentiated THP-1 cells stimulated with gramicidin (hTHP-1 assay, 2% fetal bovine serum; Procedures 1-3). In kind it is cell-based, human. The note with it: read-out: IC50. In a few lines:
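IL-1β released into supernatants was read by HTRF after 2 h gramicidin (5 μM) challenge. Before challenge, compounds (3-fold dilutions, top 100 μM, 0.37% DMSO) were given 1 h on THP-1 cells differentiated with PMA (20 ng/ml, 16-18 h) and held in 2% FBS medium.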

[1] abbreviates: hTHP-1 assay containing 2% fetal bovine serum, Table B2, class symbols.
The mark [2] stands for this setting: Homo sapiens, THP-1, hTHP-1 assay containing 2% fetal bovine serum, Table B2, given as bound.
The mark [3] stands for this setting: Homo sapiens, THP-1, hTHP-1 assay containing 2% fetal bovine serum, Table B2, class symbols.
Where [4] appears, read: hTHP-1 assay containing 2% fetal bovine serum, Table B2, given as bound.

A word on the IC50: it is the midpoint of a concentration-inhibition curve.

Read-outs that look alike come from different tables or passages of the source.

On to `Cc1c(C2CC2)cc2c(c1NC(=O)N=S(N)(=O)c1cnc(C(C)(C)O)s1)CCC2` (single isomer, unassigned) [Example 562, (S) or (R)-N′-((6-cyclopropyl-5-methyl-2,3-dihydro-1H-inden-4-yl)carbamoyl)-2-(2-hydroxypropan-2-yl)thiazole-5-sulfonimidamide], for which the IC50 under setting [1] was in the range of 1 to 5 µM.
In the case of `Cc1c(C2CC2)cc2c(c1NC(=O)N=S(N)(=O)c1cnc(C(C)(C)O)s1)CCC2` (single isomer, unassigned) [Example 563, (R) or (S)-N′-((6-cyclopropyl-5-methyl-2,3-dihydro-1H-inden-4-yl)carbamoyl)-2-(2-hydroxypropan-2-yl)thiazole-5-sulfonimidamide], the IC50 under setting [1] is 0.04 to 0.2 µM.
In the case of `CC(C)(O)c1ncc(S(N)(=O)=NC(=O)Nc2cc3c(c4c2CCC4=O)CCC3)s1` (single isomer, unassigned) [Example 564, (S) or (R)-2-(2-hydroxypropan-2-yl)-N′-((1-oxo-1,2,3,6,7,8-hexahydro-as-indacen-4-yl)carbamoyl) thiazole-5-sulfonimidamide], under setting [2], the concentration for half-maximal inhibition (IC50) is above 30 µM.
For `CC(C)(O)c1ncc(S(N)(=O)=NC(=O)Nc2cc3c(c4c2CCC4=O)CCC3)s1` (single isomer, unassigned) [Example 565, (R) or (S)-2-(2-hydroxypropan-2-yl)-N′-((1-oxo-1,2,3,6,7,8-hexahydro-as-indacen-4-yl)carbamoyl) thiazole-5-sulfonimidamide], the IC50 under setting [3] was in the range of 5 to 30 µM.
Regarding `C=CCc1c2c(c(NC(=O)N=S(N)(=O)c3cc(C(C)(C)O)n(-c4ccccc4)n3)c3c1CCC3)CCC2` (single isomer, unassigned) [Example 566, (R) or (S)-N′-((8-allyl-1,2,3,5,6,7-hexahydro-s-indacen-4-yl)carbamoyl)-5-(2-hydroxypropan-2-yl)-1-phenyl-1H-pyrazole-3-sulfonimidaimde], the IC50 under setting [1] lay in the range of 1 to 5 µM.
In the case of `C=CCc1c2c(c(NC(=O)N=S(N)(=O)c3cc(C(C)(C)O)n(-c4ccccc4)n3)c3c1CCC3)CCC2` (single isomer, unassigned) [Example 567, (S) or (R)-N′-((8-allyl-1,2,3,5,6,7-hexahydro-s-indacen-4-yl)carbamoyl)-5-(2-hydroxypropan-2-yl)-1-phenyl-1H-pyrazole-3-sulfonimidaimde], the IC50 under setting [1] was in the range of 5 to 30 µM.
For the compound `NS(=O)(=NC(=O)Nc1c2c(cc3c1CCC3)CCC2)c1cnn2c1OCCC2` (single isomer, unassigned) [Example 568, (S) or (R)-N′-((1,2,3,5,6,7-hexahydro-s-indacen-4-yl)carbamoyl)-6,7-dihydro-5H-pyrazolo[5,1-b][1,3]oxazine-3-sulfonimidamide], the IC50 under setting [1] fell in the range of 5 to 30 µM.
On to `NS(=O)(=NC(=O)Nc1c2c(cc3c1CCC3)CCC2)c1cnn2c1OCCC2` (single isomer, unassigned) [Example 569, (R) or (S)-N′-((1,2,3,5,6,7-hexahydro-s-indacen-4-yl)caramoyl)-6,7-dihydro-5H-pyrazolo[5,1 - b][1,3]oxazine-3-sulfonimidamide], for which, under setting [1], the concentration for half-maximal inhibition (IC50) lay in the range of 0.04 to 0.2 µM.
Regarding `CNCc1cc(F)c(S(N)(=O)=NC(=O)Nc2c3c(cc4c2CCC4)CCC3)s1` (single isomer, unassigned) [Example 570, (R) or (S)-3-fluoro-N′-((1,2,3,5,6,7-hcxahydro-s-indacen-4-yl)carbamoyl)-5-((methylamino)methyl) thiophene-2-sulfonimidamide], the IC50 under setting [1] fell in the range of 0.008 to 0.04 µM.
Same read-out and setting: in the case of `CNCc1cc(F)c(S(N)(=O)=NC(=O)Nc2c3c(cc4c2CCC4)CCC3)s1` (single isomer, unassigned) [Example 571, (S) or (R)-3-fluoro-N′-((1,2,3,5,6,7-hcxahydro-s-indacen-4-yl)carbamoyl)-5-((methylamino)methyl) thiophene-2-sulfonimidamide] it was 0.2 to 1 µM.
Regarding `CC(C)(O)c1cnc(S(N)(=O)=NC(=O)Nc2c3c(cc4c2C(=O)CC4)CCC3)s1` (single isomer, unassigned) [Example 572, (R) or (S)-5-(2-hydroxypiopan-2-yl)-N′-((3-oxo-1,2,3,5,6,7-hexahydro-s-indacen-4-yl)carbamoyl)thiazole-2-sulfonimidamide], under setting [1], the IC50 is 0.2 to 1 µM.
Turning to `CC(C)(O)c1cnc(S(N)(=O)=NC(=O)Nc2c3c(cc4c2C(=O)CC4)CCC3)s1` (single isomer, unassigned) [Example 573, (S) or (R)-5-(2-hydroxypiopan-2-yl)-N′-((3-oxo-1,2,3,5,6,7-hexahydro-s-indacen-4-yl)carbamoyl)thiazole-2-sulfonimidamide], the IC50 under setting [1] was in the range of 5 to 30 µM.
With `CC(C)(O)c1cc(S(N)(=O)=NC(=O)Nc2c3c(c(C#N)c4c2CCC4)CCC3)nn1-c1ccccc1` (single isomer, unassigned) [Example 574, (S) or (R)-N′-((8-cyano-1,2,3,5,6,7-hexahydro-s-indacen-4-yl)carbamoyl)-5-(2-hydroxypropan-2-yl)-1-pheny-1H-pyrazole-3-sulfonimidamide], under setting [1], the IC50 is 5 to 30 µM.
Same read-out and setting: then `CC(C)(O)c1cc(S(N)(=O)=NC(=O)Nc2c3c(c(C#N)c4c2CCC4)CCC3)nn1-c1ccccc1` (single isomer, unassigned) [Example 575, (R) or (S)-N′-((8-cyano-1,2,3,5,6,7-hexahydro-s-indacen-4-yl)carbamoyl)-5-(2-hydroxypropan-2-yl)-1-pheny-1H-pyrazole-3-sulfonimidamide], with 0.2 to 1 µM.
Consider `N[S@](=O)(=NC(=O)Nc1c2c(cc3c1CCC3)CCC2)c1ccc(OC(F)F)cc1` (single isomer, unassigned) [Example 577, (S) or (R)-4-(difluoromethoxy)-N′-((1,2,3,5,6,7-hexahydro-s-indacen-4-yl)carbamoyl) benzenesulfonimidamide], for which the IC50 under setting [4] was above 30 µM.
For the compound `CC(C)(O)c1cc(C#N)cc(S(N)(=O)=NC(=O)Nc2c3c(c(C#N)c4c2CCC4)CCC3)c1` (single isomer, unassigned) [Example 578, (R) or (S)-3-cyano-N′-((8-cyano-1,2,3,5,6,7-hexahydro-s-indacen-4-yl)carbamoyl)-5-(2-hydroxypropan-2-yl) benzenesulfonimidamide], the IC50 under setting [1] is 1 to 5 µM.
Still for that read-out and setting: then `CC(C)(O)c1cc(C#N)cc(S(N)(=O)=NC(=O)Nc2c3c(c(C#N)c4c2CCC4)CCC3)c1` (single isomer, unassigned) [Example 579, (S) or (R)-3-cyano-N′-((8-cyano-1,2,3,5,6,7-hexahydro-5-indacen-4-yl)carbamoyl)-5-(2-hydroxypropan-2-yl) benzenesulfonimidamide], with 5 to 30 µM.
On to `CN(C)Cc1ccc(S(N)(=O)=NC(=O)Nc2c3c(cc4c2CC4)CCC3)cc1` (single isomer, unassigned) [Example 580, (R) or (S)-4-((dimethylamino)methyl)-N′-((2,4,5,6-tetrahydro-1H-cyclobuta[f]inden-3 - yl)carbamoyl) benzenesulfonimidamide], for which the IC50 under setting [1] was in the range of 0.2 to 1 µM.
As for `CN(C)Cc1ccc(S(N)(=O)=NC(=O)Nc2c3c(cc4c2CC4)CCC3)cc1` (single isomer, unassigned) [Example 581, (S) or (R)-4-((dimethylamino)methyl)-N′-((2,4,5,6-tetrahydro-1H-cyclobuta[f]inden-3-yl)carbamoyl) benzenesulfonimidamide], the IC50 under setting [1] was 5 to 30 µM.
`CN(C)Cc1ccc(S(N)(=O)=NC(=O)Nc2c3c(cc4c2CC4)CC3)cc1` (single isomer, unassigned) [Example 582, (R) or (S)-4-((dimethylamino)methyl)-N′-(tricyclo[6.2.0.03,6]deca-1,3(6),7-trien-2-ylcarbamoyl) benzenesulfonimidamide]: the IC50 under setting [1] lay in the range of 0.2 to 1 µM.
`CN(C)Cc1ccc(S(N)(=O)=NC(=O)Nc2c3c(cc4c2CC4)CC3)cc1` (single isomer, unassigned) [Example 583, (S) or (R)-4-((dimethylamino)methyl)-N′-(tricyclo[6.2.0.03,6]deca-1,3(6),7-trien-2-ylcarbamoyl) benzenesulfonimidamide]: the IC50 under setting [1] fell in the range of 5 to 30 µM.
Regarding `CN1CCc2ccc(S(N)(=O)=NC(=O)Nc3c4c(cc5c3CCC5)CCC4)cc2C1` (single isomer, unassigned) [Example 584, (S) or (R)-N′-((1,2,3,5,6,7-hexahydro-s-indacen-4-yl)carbamoyl)-2-methyl-1,2,3,4-tetrahydroisoquinoline-7-sulfonimidamide], the IC50 under setting [2] was above 30 µM.
For `CN1CCc2ccc(S(N)(=O)=NC(=O)Nc3c4c(cc5c3CCC5)CCC4)cc2C1` (single isomer, unassigned) [Example 585, (R) or (S)-N′-((1,2,3,5,6,7-hexahydro-s-indacen-4-yl)carbamoyl)-2-methyl-1,2,3,4-tetrahydroisoquinoline-7-sulfonimidamide], the IC50 under setting [3] lay within 1 to 5 µM.
On to `NS(=O)(=NC(=O)Nc1c2c(cc3c1CCC3)CCC2)c1ccc(C2CCCC2)nc1` (single isomer, unassigned) [Example 586, (S) or (R)-6-cyclopentyl-N′-((1,2,3,5,6,7-hexahydro-s-indacen-4-yl)carbamoyl)pyridine-3-sulfonimidamide], for which the IC50 under setting [2] was above 30 µM.
Regarding `NS(=O)(=NC(=O)Nc1c2c(cc3c1CCC3)CCC2)c1ccc(C2CCCC2)nc1` (single isomer, unassigned) [Example 587, (R) or (S)-6-cyclopentyl-N′-((1,2,3,5,6,7-hexahydro-s-indacen-4-yl)carbamoyl)pyridine-3-sulfonimidamide], under setting [4], the IC50 is above 30 µM.
With `CC(C)(O)c1cnc(S(N)(=O)=NC(=O)Nc2c3c(cc4c2CCC4=O)CCC3)s1` (single isomer, unassigned) [Example 588, (S) or (R)-5-(2-hydroxypropan-2-yl)-N′-((1-oxo-1,2,3,5,6,7-hexahydro-s-indacen-4-yl)carbamoyl) thiazole-2-sulfonimidamide], the half-inhibitory concentration (IC50) under setting [2] was above 30 µM.

Source of the values: patent publication US20230051589A1, “COMPOUNDS AND COMPOSITIONS FOR TREATING CONDITIONS ASSOCIATED WITH NLRP ACTIVITY” (Novartis AG, priority 2018, published 2023).
